The target of the test is recombinant SARS-CoV-2 M^pro (Severe acute respiratory syndrome coronavirus 2 (2019-nCoV) (SARS-CoV-2), UniProt P0DTD1). Put plainly: Inhibition of SARS-CoV-2 M^pro enzyme activity (fluorescent substrate assay). To be noted: inhibition of SARS-CoV-2 M^pro enzyme activity, read-out: IC50. It counts as biochemical.

Read-outs that look alike come from different tables or passages of the source.

One may read the IC50 as the concentration that gives 50% inhibition. As to `O=C(CNC(=O)C1CCC(F)(F)CC1)N[C@H](Cc1ccc(Cl)cc1Cl)C(=O)C(=O)NCc1ccccn1` [Compound 450], the IC50 (values in nM) was 45.4 ± 0.2 nM.

In the case of `O=C(CNC(=O)C1CCC(F)(F)CC1)N[C@H](Cc1ccc(Cl)cc1Cl)C(=O)C(=O)NCc1ccccn1` [Compound 451], under “values in nM”, the IC50 is 34.4 ± 1.8 nM.

For `C[C@H](NC(=O)C1CCC(F)(F)CC1)C(=O)N[C@H](Cc1ccccc1)C(=O)C(=O)NCc1ccccn1` [Compound 452], the half-maximal inhibitory concentration (IC50) (values in nM) came out at 66.2 ± 0.9 nM. On the same count and under the same terms, then `O=C(NCc1ccccn1)C(=O)[C@@H](Cc1ccccc1)NC(=O)[C@@H]1CC(F)(F)CN1C(=O)[C@@H]1C[C@@H]2[C@H](C1)C2(F)F` [Compound 453], with 37.2 ± 0.2 nM. Turning to `O=C(NCc1nccs1)C(=O)[C@@H](Cc1ccccc1)NC(=O)c1ccccc1` [Compound 454], the concentration for half-maximal inhibition (IC50) (values given in μM) came to 1300 ± 70 nM. Turning to `O=C(NCc1cccs1)C(=O)[C@@H](Cc1ccccc1)NC(=O)c1ccccc1` [Compound 455], under “values given in μM”, the IC50 worked out at 77300 ± 2310 nM. As to `O=C(NCc1ccco1)C(=O)[C@@H](Cc1ccccc1)NC(=O)c1ccccc1` [Compound 456], the IC50 (values given in μM) was found to be 37200 ± 510 nM. Regarding `O=C(NCc1ncco1)C(=O)[C@@H](Cc1ccccc1)NC(=O)c1ccccc1` [Compound 457], for the setting “values given in μM”, the IC50 was determined as 51500 ± 940 nM. For `O=C(NCc1cocn1)C(=O)[C@@H](Cc1ccccc1)NC(=O)c1ccccc1` [Compound 458], the half-inhibitory concentration (IC50) (values given in μM) came out at 11400 ± 80 nM.

On to `O=C(NCc1ccon1)C(=O)[C@@H](Cc1ccccc1)NC(=O)c1ccccc1` [Compound 459], for which the concentration for half-maximal inhibition (IC50) (values given in μM) worked out at 54740 ± 350 nM. As to `O=C(NCc1ncon1)C(=O)[C@@H](Cc1ccccc1)NC(=O)c1ccccc1` [Compound 460], the half-inhibitory concentration (IC50) (values given in μM) was 53000 ± 3340 nM. As for `O=C(NCc1ncno1)C(=O)[C@@H](Cc1ccccc1)NC(=O)c1ccccc1` [Compound 461], the IC50 (values given in μM) is 62300 ± 2070 nM. For `Cc1csc(CNC(=O)C(=O)[C@@H](Cc2ccccc2)NC(=O)c2ccccc2)n1` [Compound 462], for the setting “values given in μM”, the 50% inhibitory concentration (IC50) came out at 40700 ± 1500 nM. Consider `O=C(NCc1cnc(Cl)s1)C(=O)[C@@H](Cc1ccccc1)NC(=O)c1ccccc1` [Compound 463], for which, where the note is “values given in μM”, the IC50 amounted to 95200 ± 5990 nM. For the compound `O=C(NCc1nccs1)C(=O)[C@@H](Cc1ccccc1F)NC(=O)c1ccccc1` [Compound 464], the half-inhibitory concentration (IC50) (values given in μM) stood at 3500 ± 230 nM. As to `O=C(NCc1nccs1)C(=O)[C@@H](Cc1cccc(F)c1)NC(=O)c1ccccc1` [Compound 465], the 50% inhibitory concentration (IC50) (values given in μM) came to 2550 ± 20 nM. Consider `O=C(NCc1nccs1)C(=O)[C@@H](Cc1ccc(F)cc1)NC(=O)c1ccccc1` [Compound 466], for which the half-inhibitory concentration (IC50) (values given in μM) came to 1950 ± 290 nM. With `O=C(NCc1nccs1)C(=O)[C@@H](Cc1cc(F)c(F)cc1F)NC(=O)c1ccccc1` [Compound 467], the 50% inhibitory concentration (IC50) (values given in μM) was 3370 ± 180 nM. As for `O=C(NCc1nccs1)C(=O)[C@@H](CC1CCCCC1)NC(=O)c1ccccc1` [Compound 468], the half-inhibitory concentration (IC50) (values given in μM) was 10500 ± 630 nM.

As for `O=C(NCc1nccs1)C(=O)[C@@H](Cc1cccc(Cl)c1)NC(=O)c1ccccc1` [Compound 469], the IC50 (values given in μM) was 1430 ± 150 nM. On the same count and under the same terms, then `O=C(NCc1nccs1)C(=O)[C@@H](Cc1ccc(Cl)c(Cl)c1)NC(=O)c1ccccc1` [Compound 470], with 2030 ± 70 nM. As to `O=C(NCc1nccs1)C(=O)[C@@H](Cc1ccccc1)NC(=O)c1ccccc1F` [Compound 471], under “values in nM”, the half-inhibitory concentration (IC50) turned out to be 264 ± 4 nM. Regarding `O=C(NCc1nccs1)C(=O)[C@@H](Cc1ccccc1)NC(=O)c1cccc(F)c1` [Compound 472], for the setting “values in nM”, the IC50 was 478 ± 4.8 nM. Take `O=C(NCc1nccs1)C(=O)[C@@H](Cc1ccccc1)NC(=O)c1ccc(F)cc1` [Compound 473]: the IC50 (values given in μM) was 1310 ± 100 nM.

For `O=C(Cc1ccccc1)N[C@H](Cc1ccccc1)C(=O)C(=O)NCc1nccs1` [Compound 474], the IC50 (values in nM) came out at 949 ± 39.9 nM.

Regarding `O=C(CCc1ccccc1)N[C@H](Cc1ccccc1)C(=O)C(=O)NCc1nccs1` [Compound 475], the IC50 (values given in μM) was 1220 ± 100 nM. `O=C(COc1ccccc1)N[C@H](Cc1ccccc1)C(=O)C(=O)NCc1nccs1` [Compound 476]: for the setting “values in nM”, the IC50 is 880.8 ± 1.2 nM. For `O=C(CNC(=O)c1ccccc1)N[C@H](Cc1ccccc1)C(=O)C(=O)NCc1nccs1` [Compound 477], under “values given in μM”, the half-inhibitory concentration (IC50) turned out to be 1860 ± 40 nM.

As for `O=C(CNC(=O)c1cnccn1)N[C@H](Cc1ccccc1)C(=O)C(=O)NCc1nccs1` [Compound 478], the IC50 (values given in μM) amounted to 3620 ± 270 nM. `O=C(CNC(=O)c1ccccn1)N[C@H](Cc1ccccc1)C(=O)C(=O)NCc1nccs1` [Compound 479]: the IC50 (values given in μM) amounted to 2240 ± 100 nM. For `O=C(CNC(=O)c1cccnc1)N[C@H](Cc1ccccc1)C(=O)C(=O)NCc1nccs1` [Compound 480], the IC50 (values given in μM) was 2230 ± 370 nM.

Take `O=C(CNC(=O)c1ccccc1F)N[C@H](Cc1ccccc1)C(=O)C(=O)NCc1nccs1` [Compound 481]: for the setting “values in nM”, the IC50 was 998.3 ± 0.2 nM. Take `O=C(CNC(=O)c1cccc(F)c1)N[C@H](Cc1ccccc1)C(=O)C(=O)NCc1nccs1` [Compound 482]: the 50% inhibitory concentration (IC50) (values in nM) is 538.2 ± 4.3 nM.

Take `O=C(CNC(=O)c1ccc(F)cc1)N[C@H](Cc1ccccc1)C(=O)C(=O)NCc1nccs1` [Compound 483]: for the setting “values in nM”, the IC50 was found to be 338.4 ± 3 nM.

`CC(C)(OCc1ccc(F)cc1)C(=O)N[C@H](Cc1ccccc1)C(=O)C(=O)NCc1nccs1` [Compound 484]: the 50% inhibitory concentration (IC50) (values in nM) was 95.7 ± 1.5 nM. Turning to `CC(C)(OCc1ccc(Cl)cc1)C(=O)N[C@H](Cc1ccccc1)C(=O)C(=O)NCc1nccs1` [Compound 485], the half-maximal inhibitory concentration (IC50) (values in nM) came out at 33.3 ± 1.7 nM. `O=C(NCc1nccs1)C(=O)[C@@H](Cc1ccccc1)NC(=O)c1cnn(Cc2cc(F)c(F)cc2F)c1` [Compound 490]: for the setting “values given in μM”, the IC50 was 5210 ± 720 nM.

`O=C(Cn1cc(-c2ccccc2)cn1)N[C@H](Cc1ccccc1)C(=O)C(=O)NCc1nccs1` [Compound 491]: the 50% inhibitory concentration (IC50) (values in nM) amounted to 216 ± 7.3 nM. Regarding `O=C(Cn1cc(-c2cccc(F)c2)cn1)N[C@H](Cc1ccccc1)C(=O)C(=O)NCc1nccs1` [Compound 492], the concentration for half-maximal inhibition (IC50) (values in nM) is 66.3 ± 6.1 nM. As for `O=C(Cn1cc(-c2ccc(F)nc2)cn1)N[C@H](Cc1ccccc1)C(=O)C(=O)NCc1nccs1` [Compound 493], where the note is “values in nM”, the concentration for half-maximal inhibition (IC50) worked out at 451.5 ± 2.3 nM.

As for `O=C(Cn1cc(-c2cccc(OC(F)(F)F)c2)cn1)N[C@H](Cc1ccccc1)C(=O)C(=O)NCc1nccs1` [Compound 494], for the setting “values in nM”, the IC50 amounted to 82.5 ± 3.7 nM. In the case of `O=C(Cn1cc(-c2ccc(OC(F)(F)F)cc2)cn1)N[C@H](Cc1ccccc1)C(=O)C(=O)NCc1nccs1` [Compound 495], the concentration for half-maximal inhibition (IC50) (values given in μM) is 2270 ± 90 nM. Turning to `N#Cc1cccc(-c2cnn(CC(=O)N[C@H](Cc3ccccc3)C(=O)C(=O)NCc3nccs3)c2)c1` [Compound 496], the IC50 (values in nM) is 77 ± 4.1 nM. Regarding `O=C(Cn1cc(-c2ccc(F)c(Cl)c2)cn1)N[C@H](Cc1ccccc1)C(=O)C(=O)NCc1nccs1` [Compound 497], the IC50 (values in nM) is 36 ± 2.4 nM.

Take `O=C(Cn1cc(-c2ccc(F)c(C(F)(F)F)c2)cn1)N[C@H](Cc1ccccc1)C(=O)C(=O)NCc1nccs1` [Compound 498]: the half-inhibitory concentration (IC50) (values in nM) was determined as 103 ± 5.3 nM. Take `Cc1nn(CC(=O)N[C@H](Cc2ccccc2)C(=O)C(=O)NCc2nccs2)c(C)c1-c1ccc(F)c(Cl)c1` [Compound 499]: the 50% inhibitory concentration (IC50) (values in nM) amounted to 32.9 ± 1.5 nM.

In the case of `O=C(Cn1cc(-c2ccc(F)c(Cl)c2)c(C(F)(F)F)n1)N[C@H](Cc1ccccc1)C(=O)C(=O)NCc1nccs1` [Compound 500], the 50% inhibitory concentration (IC50) (values in nM) came to 38.9 ± 0.5 nM. The same measure, in the same setting: under `O=C(Cn1cc(-c2cc(F)cc(F)c2)cn1)N[C@H](Cc1ccccc1)C(=O)C(=O)NCc1nccs1` [Compound 502] stands 47 ± 0.5 nM. In the case of `O=C(Cn1cc(-c2cc(F)c(F)c(F)c2)cn1)N[C@H](Cc1ccccc1)C(=O)C(=O)NCc1nccs1` [Compound 504], the 50% inhibitory concentration (IC50) (values in nM) was found to be 47.7 ± 0.9 nM. On the same count and under the same terms, under `O=C(Cn1cc(-c2c(F)ccc(F)c2F)cn1)N[C@H](Cc1ccccc1)C(=O)C(=O)NCc1nccs1` [Compound 505] stands 239 ± 4 nM. Still for that read-out and setting: under `O=C(Cn1cc(-c2cc(F)c(F)cc2F)cn1)N[C@H](Cc1ccccc1)C(=O)C(=O)NCc1nccs1` [Compound 506] stands 105 ± 2.9 nM; under `O=C(Cn1cc(-c2cc(F)ccc2F)cn1)N[C@H](Cc1ccccc1)C(=O)C(=O)NCc1nccs1` [Compound 507], 12.6 ± 0.4 nM. With `Cc1nn(CC(=O)N[C@H](Cc2ccccc2)C(=O)C(=O)NCc2nccs2)c(C)c1C1CCC(F)(F)CC1` [Compound 509], the IC50 (values in nM) stood at 151 ± 6.6 nM.

In the case of `O=C(Cn1cc(C2CCC(F)(F)CC2)c(C(F)(F)F)n1)N[C@H](Cc1ccccc1)C(=O)C(=O)NCc1nccs1` [Compound 510], where the note is “values in nM”, the IC50 amounted to 137 ± 1.6 nM. Regarding `O=C(Cc1csc(C2CCC(F)(F)CC2)n1)N[C@H](Cc1ccccc1)C(=O)C(=O)NCc1nccs1` [Compound 511, (R)-3-(2-(2-(4,4-difluorocyclohexyl)thiazole-4-yl)acetamido)-2-oxo-4-phenyl-N-(thiazole-2-ylmethyl)butyramide], under “values in nM”, the half-inhibitory concentration (IC50) was 30.4 ± 2.1 nM. For the compound `O=C(NCc1nccs1)C(=O)[C@@H](Cc1ccccc1)NC(=O)C1(n2ccc(C3CCC(F)(F)CC3)n2)CC1` [Compound 512], the IC50 (values in nM) is 22.1 ± 0.5 nM. On the same count and under the same terms, under `O=C(Cn1cc(C2CCC(F)(F)CC2)cn1)N[C@H](Cc1ccccc1)C(=O)C(=O)NCc1nccs1` [Compound 513] stands 30.4 ± 0.8 nM. Regarding `N#Cc1cc(F)cc(-c2nc(CC(=O)N[C@H](Cc3ccccc3)C(=O)C(=O)NCc3nccs3)cs2)c1` [Compound 514], the IC50 (values in nM) came to 56.8 ± 0.4 nM. On the same count and under the same terms, under `Cc1cc(-c2cc(Cl)cc(C#N)c2)nn1CC(=O)N[C@H](Cc1ccccc1)C(=O)C(=O)NCc1nccs1` [Compound 515] stands 26.2 ± 0.3 nM. As to `O=C(Cc1noc(-c2ccc(F)c(F)c2)n1)N[C@H](Cc1ccccc1)C(=O)C(=O)NCc1nccs1` [Compound 516, (R)-3-(2-(5-(3,4-difluorophenyl)-1,2,4-oxadiazol-3-yl)acetylamino)-2-oxo-4-phenyl-N-(thiazole-2-ylmethyl)butyramide], the IC50 (values in nM) was determined as 33 ± 1.9 nM. For `Cc1cc(-c2cc(Cl)cc(C#N)c2)nn1C1(C(=O)N[C@H](Cc2ccccc2)C(=O)C(=O)NCc2nccs2)CC1` [Compound 517], where the note is “values in nM”, the concentration for half-maximal inhibition (IC50) stood at 56.2 ± 3.2 nM.

For the compound `N#Cc1cc(F)cc(N2CC(=O)N(CC(=O)N[C@H](Cc3ccccc3)C(=O)C(=O)NCc3nccs3)C2=O)c1` [Compound 518, (R)-3-(2-(3-(3-cyano-5-fluorophenyl)-2,5-dioxoimidazolidin-1-yl)acetylamino)-2-oxo-4-phenyl-N-(thiazole-2-ylmethyl) butyramide], the concentration for half-maximal inhibition (IC50) (values in nM) turned out to be 248.5 ± 1.4 nM.

Values taken from patent US20250064789A1, “KETOAMIDE DERIVATIVES AND PHARMACEUTICAL USES THEREOF” (priority 2022, published 2025).
